Laboratory results reported in US20230310628A1, “Multi-Targeted Multi-Valent Ligand Drug Particles for the Treatment and Prevention of Diseases and Conditions” (priority 2017, published 2023).

Test system: cell lines expressing HER2 and EGFR
Assay: Cytotoxicity studies in vitro, free versus liposomal doxorubicin
Type: cell-based, human
Conditions: compared with liposomal doxorubicin
Procedure: Cytotoxicity studies were conducted with doxorubicin as it is the staple drug for liposomal delivery.
For cytotoxicity studies, cells cultured overnight in 96-well plates (10*10^3 cells/well) were incubated with doxorubicin-load liposomes (100 μg/ml with 1/3 dilutions) at 37° C. for 4 hr, washed with PBS, and grown in medium for 3 additional days. Cell viability was analyzed by MTT assay.

## COc1cccc2c1C(=O)c1c(O)c3c(c(O)c1C2=O)C[C@@](O)(C(=O)CO)C[C@@H]3O[C@H]1C[C@H](N)[C@H](O)[C@H](C)O1 [free doxorubicin, doxorubicin]
  effectiveness in cytotoxicity studies in vitro: most effective
